From ChEMBL document CHEMBL3885881, “DrugMatrix”

Organism: Rattus norvegicus
Assay: DrugMatrix - Regimen: Daily Repeat
Format: toxicity, organism-based, Sprague-Dawley
Set-up: regimen Daily Repeat, gender Male, age 6-8 weeks
Settings: in vivo, po, route oral GAVAGE, vehicle .5 % CMC; for ABSOLUTE BASOPHIL / ABSOLUTE EOSINOPHIL / ABSOLUTE LYMPHOCYTE / ABSOLUTE MONOCYTE / ABSOLUTE SEGMENTED NEUTROPHIL / BASOPHIL / EOSINOPHIL / ERYTHROCYTE COUNT / HEMATOCRIT / HEMOGLOBIN / LEUKOCYTE COUNT / LYMPHOCYTE / MEAN CORPUSCULAR HEMOGLOBIN / MEAN CORPUSCULAR HEMOGLOBIN CONCENTRATION / MEAN CORPUSCULAR VOLUME / MONOCYTE / NEUTROPHIL / NUCLEATED RED BLOOD CELLS / PLATELET COUNT: tissue Blood; for ALANINE AMINOTRANSFERASE / ALBUMIN / ALKALINE PHOSPHATASE / ASPARTATE AMINOTRANSFERASE / BLOOD UREA NITROGEN / CARBON DIOXIDE / CHLORIDE / CHOLESTEROL / CREATINE PHOSPHOKINASE / CREATININE / GLUCOSE / LACTATE DEHYDROGENASE / LIPASE / PHOSPHORUS / POTASSIUM / SODIUM / TOTAL BILIRUBIN / TOTAL PROTEIN / URIC ACID: tissue Plasma
[1] = 200 mg/kg, 120 h, dose level Low, time 5 day
[2] = 1500 mg/kg, 72 h, dose level High, time 3 day
[3] = 1500 mg/kg, 120 h, dose level High, time 5 day

Structure (SMILES): CCn1cc(C(=O)O)c(=O)c2cc(F)c(N3CCNCC3)cc21 [NORFLOXACIN]
- ABSOLUTE BASOPHIL [1]: 0 CELLS/uL
- ABSOLUTE EOSINOPHIL [1]: 0 CELLS/uL
- ABSOLUTE LYMPHOCYTE [1]: 13445.67 CELLS/uL
- ABSOLUTE MONOCYTE [1]: 43.67 CELLS/uL
- ABSOLUTE SEGMENTED NEUTROPHIL [1]: 644 CELLS/uL
- BASOPHIL [1]: 0%
- EOSINOPHIL [1]: 0%
- ERYTHROCYTE COUNT [1]: 5.72 x10E6/uL
- HEMATOCRIT [1]: 35.23%
- HEMOGLOBIN [1]: 14.43 G/DL
- LEUKOCYTE COUNT [1]: 14.13 x10E3/uL
- LYMPHOCYTE [1]: 95%
- MEAN CORPUSCULAR HEMOGLOBIN [1]: 25.37 pg
- MEAN CORPUSCULAR HEMOGLOBIN CONCENTRATION [1]: 41 G/DL
- MEAN CORPUSCULAR VOLUME [1]: 61.8 fL
- MONOCYTE [1]: 0.33%
- NEUTROPHIL [1]: 4.67%
- NUCLEATED RED BLOOD CELLS [1]: 0.33 /100WBC
- PLATELET COUNT [1]: 1391.67 x10E3/uL
- ALANINE AMINOTRANSFERASE [1]: 60.33 u/L
- ALBUMIN [1]: 4.43 G/DL
- ALKALINE PHOSPHATASE [1]: 370.33 u/L
- ASPARTATE AMINOTRANSFERASE [1]: 99 u/L
- BLOOD UREA NITROGEN [1]: 15.67 mg/dL
- CARBON DIOXIDE [1]: 26.67 mmol/L
- CHLORIDE [1]: 102 MEQ/L
- CHOLESTEROL [1]: 45.67 mg/dL
- CREATINE PHOSPHOKINASE [1]: 920 u/L
- CREATININE [1]: 0.25 mg/dL
- GLUCOSE [1]: 138.67 mg/dL
- LACTATE DEHYDROGENASE [1]: 195.67 u/L
- LIPASE [1]: 9.33 u/L
- PHOSPHORUS [1]: 12.13 mg/dL
- POTASSIUM [1]: 6.16 MEQ/L
- SODIUM [1]: 145 MEQ/L
- TOTAL BILIRUBIN [1]: 0.2 mg/dL
- TOTAL PROTEIN [1]: 6.3 G/DL
- URIC ACID [1]: 1.53 mg/dL
- ABSOLUTE BASOPHIL [2]: 0 CELLS/uL
- ABSOLUTE EOSINOPHIL [2]: 108.33 CELLS/uL
- ABSOLUTE LYMPHOCYTE [2]: 13773 CELLS/uL
- ABSOLUTE MONOCYTE [2]: 98.33 CELLS/uL
- ABSOLUTE SEGMENTED NEUTROPHIL [2]: 1087 CELLS/uL
- BASOPHIL [2]: 0%
- EOSINOPHIL [2]: 0.67%
- ERYTHROCYTE COUNT [2]: 5.77 x10E6/uL
- HEMATOCRIT [2]: 37.03%
- HEMOGLOBIN [2]: 14.53 G/DL
- LEUKOCYTE COUNT [2]: 15.07 x10E3/uL
- LYMPHOCYTE [2]: 91.33%
- MEAN CORPUSCULAR HEMOGLOBIN [2]: 25.2 pg
- MEAN CORPUSCULAR HEMOGLOBIN CONCENTRATION [2]: 39.23 G/DL
- MEAN CORPUSCULAR VOLUME [2]: 64.2 fL
- MONOCYTE [2]: 0.67%
- NEUTROPHIL [2]: 7.33%
- NUCLEATED RED BLOOD CELLS [2]: 0 /100WBC
- PLATELET COUNT [2]: 1268.67 x10E3/uL
- ALANINE AMINOTRANSFERASE [2]: 62.67 u/L
- ALBUMIN [2]: 4.2 G/DL
- ALKALINE PHOSPHATASE [2]: 453 u/L
- ASPARTATE AMINOTRANSFERASE [2]: 76 u/L
- BLOOD UREA NITROGEN [2]: 16 mg/dL
- CARBON DIOXIDE [2]: 32.33 mmol/L
- CHLORIDE [2]: 101.33 MEQ/L
- CHOLESTEROL [2]: 46.67 mg/dL
- CREATINE PHOSPHOKINASE [2]: 192 u/L
- CREATININE [2]: 0.24 mg/dL
- GLUCOSE [2]: 128 mg/dL
- LACTATE DEHYDROGENASE [2]: 150 u/L
- LIPASE [2]: 9.33 u/L
- PHOSPHORUS [2]: 11.07 mg/dL
- POTASSIUM [2]: 6.55 MEQ/L
- SODIUM [2]: 147.2 MEQ/L
- TOTAL BILIRUBIN [2]: 0.13 mg/dL
- TOTAL PROTEIN [2]: 6 G/DL
- URIC ACID [2]: 1.13 mg/dL
- ABSOLUTE BASOPHIL [3]: 0 CELLS/uL
- ABSOLUTE EOSINOPHIL [3]: 0 CELLS/uL
- ABSOLUTE LYMPHOCYTE [3]: 15656 CELLS/uL
- ABSOLUTE MONOCYTE [3]: 107.67 CELLS/uL
- ABSOLUTE SEGMENTED NEUTROPHIL [3]: 603 CELLS/uL
- BASOPHIL [3]: 0%
- EOSINOPHIL [3]: 0%
- ERYTHROCYTE COUNT [3]: 5.97 x10E6/uL
- HEMATOCRIT [3]: 36.5%
- HEMOGLOBIN [3]: 14.8 G/DL
- LEUKOCYTE COUNT [3]: 16.37 x10E3/uL
- LYMPHOCYTE [3]: 95.67%
- MEAN CORPUSCULAR HEMOGLOBIN [3]: 24.83 pg
- MEAN CORPUSCULAR HEMOGLOBIN CONCENTRATION [3]: 40.53 G/DL
- MEAN CORPUSCULAR VOLUME [3]: 61.23 fL
- MONOCYTE [3]: 0.67%
- NEUTROPHIL [3]: 3.67%
- NUCLEATED RED BLOOD CELLS [3]: 0 /100WBC
- PLATELET COUNT [3]: 1304.33 x10E3/uL
- ALANINE AMINOTRANSFERASE [3]: 82 u/L
- ALBUMIN [3]: 4.47 G/DL
- ALKALINE PHOSPHATASE [3]: 305.67 u/L
- ASPARTATE AMINOTRANSFERASE [3]: 89.67 u/L
- BLOOD UREA NITROGEN [3]: 17.33 mg/dL
- CARBON DIOXIDE [3]: 22.33 mmol/L
- CHLORIDE [3]: 102.33 MEQ/L
- CHOLESTEROL [3]: 48 mg/dL
- CREATINE PHOSPHOKINASE [3]: 264 u/L
- CREATININE [3]: 0.43 mg/dL
- GLUCOSE [3]: 145.33 mg/dL
- LACTATE DEHYDROGENASE [3]: 298.67 u/L
- LIPASE [3]: 12 u/L
- PHOSPHORUS [3]: 10.97 mg/dL
- POTASSIUM [3]: 6.62 MEQ/L
- SODIUM [3]: 145.07 MEQ/L
- TOTAL BILIRUBIN [3]: 0.13 mg/dL
- TOTAL PROTEIN [3]: 6.77 G/DL
- URIC ACID [3]: 2.07 mg/dL
